The nature of data set [1]: Percent tissue uptake from paclitaxel coated balloon (FIG. 3). The format is in vivo. The note with it: porcine coronary arteries, day 1 (24 hours).
The subject of the next data set is whole blood. Briefly: Acute thrombogenicity of stents in whole blood via the Chandler Loop (FIG. 5). As to conditions: drug coated stents in whole blood; compared to zotarolimus.
Data set [2] can be described thus: Drug transfer efficiency of drug coated balloons (Table 1). As to conditions: balloon 3 × 12 mm, coronary, 20% overstretch, stent present, inflation 30 s, time point 30 minutes. The format is in vivo. The procedure: For purpose of explanation, and not limitation, of the disclosed subject matter, reference is now made to a comparative study between paclitaxel and zotarolimus.
(§1) With a stent on a coronary balloon, the percent of dose in the vessel from a pure zotarolimus coated balloon was measured at about 30 minutes, 1 day, and 7 days.

The conditions of data set [3]: in vivo.
A short description of data set [4]: Percent of dose in the vessel from pure zotarolimus coated coronary balloon with stent (FIG. 2). The class given is in vivo. Here is the method:
FIG. 2 is a graph illustrating percent transfer efficiency as a function of time for pure zotarolimus coatings on a zotarolimus coated balloon.
as §1

For `CC(=O)O[C@H]1C(=O)[C@@]2(C)[C@H]([C@H](OC(=O)c3ccccc3)[C@]3(O)C[C@H](OC(=O)[C@H](O)[C@@H](NC(=O)c4ccccc4)c4ccccc4)C(C)=C1C3(C)C)[C@]1(OC(C)=O)CO[C@@H]1C[C@@H]2O` [paclitaxel], the tissue uptake result in data set [1] was “about 2%”. In addition, the “acute thrombogenicity as measured by lactate dehydrogenase (LDH)” value in the data set on whole blood is “more thrombogenic”.

For `CO[C@H]1C[C@@H]2CC[C@@H](C)[C@@](O)(O2)C(=O)C(=O)N2CCCC[C@H]2C(=O)O[C@H]([C@H](C)C[C@@H]2CC[C@H](n3cnnn3)[C@H](OC)C2)CC(=O)[C@H](C)/C=C(\C)[C@@H](O)[C@@H](OC)C(=O)[C@H](C)C[C@H](C)/C=C/C=C/C=C/1C` [Pure Zotarolimus, zotarolimus], the Percent transfer efficiency worked out at 4.7 in data set [2] (dose 104 μg/cm^2) and 5.2 in data set [2] (dose 576 μg/cm^2). Also, in data set [3], the “histology evidence of coating fragments adhering to a vessel wall” value is on record as “no apparent histology evidence”. Moreover, the “percent drug in tissue over time” value in data set [4] (coronary balloon with stent, measured at about 30 minutes, 1 day and 7 days) is “rapid decrease in the percent drug in tissue”. The tissue uptake entry in data set [4] (pure zotarolimus coated coronary balloon with stent, 652 μg dose, day 1 (24 hours)) was “about 0.56%”.

The values are drawn from patent publication US9782516B2, “Tissue adhesive coatings for drug coated balloon” (ABBOTT CARDIOVASCULAR SYSTEMS INC., priority 2013, dated 2017).
